# Target: T1, 3-dehydroquinate dehydratase (Streptomyces coelicolor (strain ATCC BAA-471 / A3(2) / M145), UniProt P15474)
# T1 sequence (P15474 whole entry): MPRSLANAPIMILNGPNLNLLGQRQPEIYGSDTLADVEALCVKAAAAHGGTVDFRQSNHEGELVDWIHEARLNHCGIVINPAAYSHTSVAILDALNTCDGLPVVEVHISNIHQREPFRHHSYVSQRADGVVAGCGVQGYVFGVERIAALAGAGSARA
# Experiment: (§1) Competitive reversible inhibition of Strepotomyces coelicolor type 2 dehydroquinase expressed in Escherichia coli BL21 (DE3) cells assessed as enone-carboxylate chromophore of 3-dehydroshikimate formation using 3-dehydroquinate as substrate preincubated with enzyme for 3 mins prior to substrate addition by UV spectrophotometric assay
row,SMILES,Ki [nM]
1,O=C(O)[C@]1(O)C=C(c2cn(-c3ccccc3O)nn2)[C@@H](O)[C@H](O)C1,48
2,O=C(O)[C@]1(O)C=C(c2cn(-c3cccc([N+](=O)[O-])c3)nn2)[C@@H](O)[C@H](O)C1,78
3,O=C(O)[C@]1(O)C=C(c2cn(-c3ccc(F)cc3)nn2)[C@@H](O)[C@H](O)C1,29
4,O=C(O)[C@]1(O)C=C(c2cn(Cc3ccco3)nn2)[C@@H](O)[C@H](O)C1,217
5,O=C(O)[C@]1(O)C=C(c2cn(-c3cccnc3)nn2)[C@@H](O)[C@H](O)C1,5.7
6,O=C(O)c1cccc(-n2cc(C3=C[C@@](O)(C(=O)O)C[C@@H](O)[C@@H]3O)nn2)c1,1720
7,O=C(O)[C@]1(O)C=C(c2cn(Cc3cccs3)nn2)[C@@H](O)[C@H](O)C1,73
8,O=C(O)[C@]1(O)C=C(c2cn(-c3ccccc3)nn2)[C@@H](O)[C@H](O)C1,5.7

# Target: T2, 3-dehydroquinate dehydratase (Helicobacter pylori (strain ATCC 700392 / 26695) (Campylobacterpylori), UniProt Q48255)
# T2 sequence (Q48255 whole entry): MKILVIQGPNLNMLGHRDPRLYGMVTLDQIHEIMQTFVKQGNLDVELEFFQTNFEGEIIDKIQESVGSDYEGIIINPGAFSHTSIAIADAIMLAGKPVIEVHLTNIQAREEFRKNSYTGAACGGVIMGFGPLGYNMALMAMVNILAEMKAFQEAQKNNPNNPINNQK
# Experiment: as §1, with “Helicobacter pylori” for “Strepotomyces coelicolor”
row,SMILES,Ki [nM]
1,O=C(O)[C@]1(O)C=C(c2cn(-c3ccccc3O)nn2)[C@@H](O)[C@H](O)C1,157
2,O=C(O)[C@]1(O)C=C(c2cn(-c3cccc([N+](=O)[O-])c3)nn2)[C@@H](O)[C@H](O)C1,538
3,O=C(O)[C@]1(O)C=C(c2cn(-c3ccc(F)cc3)nn2)[C@@H](O)[C@H](O)C1,561
4,O=C(O)[C@]1(O)C=C(c2cn(Cc3ccco3)nn2)[C@@H](O)[C@H](O)C1,2200
5,O=C(O)[C@]1(O)C=C(c2cn(-c3cccnc3)nn2)[C@@H](O)[C@H](O)C1,375
6,O=C(O)c1cccc(-n2cc(C3=C[C@@](O)(C(=O)O)C[C@@H](O)[C@@H]3O)nn2)c1,5780
7,O=C(O)[C@]1(O)C=C(c2cn(Cc3cccs3)nn2)[C@@H](O)[C@H](O)C1,925
8,O=C(O)[C@]1(O)C=C(c2cn(-c3ccccc3)nn2)[C@@H](O)[C@H](O)C1,225

# Target: T3, 3-dehydroquinate dehydratase (Mycobacterium tuberculosis, UniProt P9WPX7)
# T3 sequence (P9WPX7 whole entry): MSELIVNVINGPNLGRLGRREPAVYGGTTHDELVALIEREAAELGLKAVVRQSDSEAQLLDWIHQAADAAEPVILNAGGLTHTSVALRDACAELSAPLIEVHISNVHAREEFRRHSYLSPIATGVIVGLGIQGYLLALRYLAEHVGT
# Experiment: as §1, with “Mycobacterium tuberculosis” for “Strepotomyces coelicolor”
row,SMILES,Ki [nM]
1,O=C(O)[C@]1(O)C=C(c2cn(-c3ccccc3O)nn2)[C@@H](O)[C@H](O)C1,330
2,O=C(O)[C@]1(O)C=C(c2cn(-c3cccc([N+](=O)[O-])c3)nn2)[C@@H](O)[C@H](O)C1,230
3,O=C(O)[C@]1(O)C=C(c2cn(-c3ccc(F)cc3)nn2)[C@@H](O)[C@H](O)C1,154
4,O=C(O)[C@]1(O)C=C(c2cn(Cc3ccco3)nn2)[C@@H](O)[C@H](O)C1,2120
5,O=C(O)[C@]1(O)C=C(c2cn(-c3cccnc3)nn2)[C@@H](O)[C@H](O)C1,136
6,O=C(O)c1cccc(-n2cc(C3=C[C@@](O)(C(=O)O)C[C@@H](O)[C@@H]3O)nn2)c1,3130
7,O=C(O)[C@]1(O)C=C(c2cn(Cc3cccs3)nn2)[C@@H](O)[C@H](O)C1,1580
8,O=C(O)[C@]1(O)C=C(c2cn(-c3ccccc3)nn2)[C@@H](O)[C@H](O)C1,39

# Source: ChEMBL document CHEMBL3217657, “Rapid assembly of potent type II dehydroquinase inhibitors viaClick chemistry” (Medchemcomm, 2010)
